Here are results for six molecules from patent US20080219963A1, “Composition Containing Micronutrients With Improved Anti-Oxidant Activity And The Use Thereof” (ACTIMEX S.R.L. AREA Science Park, priority 2005, published 2008).

Converted amounts (≈) assume the structure as drawn.

One may read the solubility as how much of the substance goes into solution per volume. Lower therefore signals little dissolved substance.

Data set [1] can be described thus: Antioxidant activity, ORAC (Oxygen Radical Absorbance Capacity) test. Type of data set: biochemical. Here is the method:
Antioxidant activity was measured using the ORAC (Oxygen Radical Absorbance Capacity) test.
The test was based on measuring the inhibition induced by an antioxidant on the loss of activity of a fluorescent indicator, in the presence of oxidants.
In practice, given a fluorescent indicator (fluorescein) which loses its fluorescence due to the action of an oxidising agent (AAPH), antioxidant activity was evaluated in terms of maintenance of the fluorescence of the indicator over time, due to the ability of the antioxidant to counteract the action of the oxidising agent.
Antioxidant activity was assessed by spectrofluorometric assay, measuring the decay of the fluorescence of the indicator over time (from 0 to 360 minutes). A measuring the fluorescence of the sodium fluorescein indicator was performed using a spectrofluorimeter at a wavelength of 515 nm.
Antioxidant activity is expressed as the antioxidant power in relation to Trolox® at the same concentration of the samples.

Data set [2] is described as follows: Solubility in buffered water at pH=7 after 24 hours (equilibrium). The settings on record: pH 7, aqueous buffer, thermodynamic from solid.
Experimental: An excess of powder is added to buffered water at pH=7 until a precipitate is obtained.
For data set [3] the following is noted: background statement; cited from earlier work.

Molecule `CC1=C(/C=C/C(C)=C/C=C/C(C)=C/C=C/C=C(C)/C=C/C=C(C)/C=C/C2=C(C)C(=O)[C@@H](O)CC2(C)C)C(C)(C)C[C@H](O)C1=O` [ASTAXANTIN (alone), astaxantin] displayed a Rel. antiox. activity in data set [1] (astaxantin alone at equal concentration = 1) of 1. Molecule `CC(C)=CCC/C(C)=C/C=C/C(C)=C/C=C/C(C)=C/C=C/C=C(C)/C=C/C=C(C)/C=C/C=C(\C)CCC=C(C)C` [LYCOPENE (alone), lycopene] gave a Rel. antiox. activity in data set [1] (lycopene alone at equal concentration = 1) of 1. `Oc1ccc(C=Cc2cc(O)cc(O)c2)cc1` [RESVERATROL (alone), resveratrol] displayed a solubility at 24 h in data set [2] (buffered water) of 150 µg/mL (≈ 657 µM). For `O=C(O)CCCCC1CCSS1` (stereo not drawn) [LIPOIC ACID (alone), lipoic acid], the Rel. antiox. activity in data set [1] (lipoic acid alone at equal concentration = 1) was 1. Regarding `COC1=C(OC)C(=O)C(C/C=C(\C)CC/C=C(\C)CC/C=C(\C)CC/C=C(\C)CC/C=C(\C)CC/C=C(\C)CC/C=C(\C)CC/C=C(\C)CC/C=C(\C)CCC=C(C)C)=C(C)C1=O` [UBIDECARENONE (alone), ubidecarenone], in data set [3], the “solubility in water or in aqueous environments” value is less than 100 µg/mL. Moreover, the Relative antiox. activity in data set [1] (ubidecarenone alone at equal concentration = 1) amounted to 1. The molecule further returned a solubility at 24 h in data set [2] (buffered water) of 2 µg/mL (≈ 2.32 µM). Molecule `O=c1c(-c2ccc(O)cc2)coc2cc(O)cc(O)c12` [GENISTEIN (alone), genistein] registered a Rel. antiox. activity in data set [1] (genistein alone at equal concentration = 1) of 1. In data set [2], this molecule gave a solubility at 24 h of 10 µg/mL (≈ 37 µM).
